In ChEMBL document CHEMBL1157604 (J Med Chem, 2010) one finds Activity, AD50 and IC50 data, which are given here for 10 molecules.

Each structure is given as a SMILES string. Active and inactive are the calls of the source. No cut-off for these calls is given here.

In general, IC50 refers to the concentration at which inhibition is half-maximal. Lower therefore signals greater potency in that assay.

Test [1] deals with Acetylcholine receptor; alpha1/beta1/delta/gamma (Homo sapiens) (UniProt P02708+P07510+P11230+Q07001). In words: Intrinsic activity at alpha-1-beta-1-gamma-delta nAChR receptor expressed in human TE671/RD cells assessed as 86Rb+ efflux at 5 to 100 uM by liquid scintillation counting. The test is classed as cell-based.
For test [2], the species on record is Mus musculus. As to the kind of experiment: Antinociceptive activity in ICR mouse assessed as inhibition of nicotine-induced response by hotplate test. The test is classed as functional.
Test [3] addresses Sodium-dependent dopamine transporter (Homo sapiens, UniProt Q01959). In words: Inhibition of [3H]dopamine uptake at human DAT expressed in HEK293 cells. The format is cell-based.
The species named for test [4] is Mus musculus. In words: Effect on behavioral activity in ICR mouse assessed as inhibition of nicotine-induced locomotory response by locomotor assay. The test is classed as functional.
The target of test [5] is Sodium-dependent noradrenaline transporter (Homo sapiens, UniProt P23975). In words: Inhibition of [3H]norepinephrine uptake at human NET expressed in HEK293 cells. The format is cell-based.
Test [6] addresses Sodium-dependent serotonin transporter (Homo sapiens, UniProt P31645). In words: Inhibition of [3H]serotonin uptake at human SERT expressed in HEK293 cells. The format is cell-based.
Test [7] is filed under the species Mus musculus. In words: Antinociceptive activity in ICR mouse D'Amour and Smith model of pain assessed as inhibition of nicotine-induced response by tail-flick test. The format is functional. Background: In hot-plate and tail-flick tests a longer latency is read as antinociception.
In test [8] the target is Neuronal acetylcholine receptor; alpha4/beta2 (Homo sapiens) (UniProt P17787+P43681). As to the kind of experiment: Intrinsic activity at human alpha4beta2 nAChR receptor expressed in human SH-SY5Y cells assessed as 86Rb+ efflux at 5 to 100 uM by liquid scintillation counting. The format is cell-based.
The species entered for test [9] is Mus musculus. In words: Effect on body temperature in ICR mouse assessed as inhibition of nicotine-induced hypothermic response. The format is functional.
The target in test [10] is Neuronal acetylcholine receptor; alpha4/beta4 (Homo sapiens) (UniProt P30926+P43681). As to the kind of experiment: Intrinsic activity at human alpha4beta4 nAChR receptor expressed in human SH-SY5Y cells assessed as 86Rb+ efflux at 5 to 100 uM by liquid scintillation counting. The format is cell-based.
Test [11] deals with Neuronal acetylcholine receptor; alpha3/beta4 (Homo sapiens) (UniProt P30926+P32297). In words: Intrinsic activity at alpha3beta4 nAChR receptor in human SH-SY5Y cells assessed as 86Rb+ efflux at 5 to 100 uM by liquid scintillation counting. The format is cell-based.

Sequence of Sodium-dependent dopamine transporter (Q01959 whole entry): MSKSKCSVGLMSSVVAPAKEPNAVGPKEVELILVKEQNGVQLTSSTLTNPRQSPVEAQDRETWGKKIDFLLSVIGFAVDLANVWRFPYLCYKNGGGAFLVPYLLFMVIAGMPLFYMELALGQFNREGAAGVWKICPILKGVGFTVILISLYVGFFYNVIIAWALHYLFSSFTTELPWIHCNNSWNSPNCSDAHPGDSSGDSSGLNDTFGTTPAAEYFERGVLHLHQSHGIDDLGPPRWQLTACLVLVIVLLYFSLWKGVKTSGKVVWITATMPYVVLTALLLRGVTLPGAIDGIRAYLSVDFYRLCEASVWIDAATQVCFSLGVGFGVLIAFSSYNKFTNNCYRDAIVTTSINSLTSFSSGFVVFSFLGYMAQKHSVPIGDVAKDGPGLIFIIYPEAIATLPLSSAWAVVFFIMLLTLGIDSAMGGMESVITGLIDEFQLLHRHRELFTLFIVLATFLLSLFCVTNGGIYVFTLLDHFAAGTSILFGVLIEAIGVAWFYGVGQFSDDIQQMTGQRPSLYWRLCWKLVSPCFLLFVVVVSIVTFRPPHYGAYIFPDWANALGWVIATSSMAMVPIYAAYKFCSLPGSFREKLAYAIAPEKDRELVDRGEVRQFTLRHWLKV
Sequence of Sodium-dependent serotonin transporter (P31645 whole entry): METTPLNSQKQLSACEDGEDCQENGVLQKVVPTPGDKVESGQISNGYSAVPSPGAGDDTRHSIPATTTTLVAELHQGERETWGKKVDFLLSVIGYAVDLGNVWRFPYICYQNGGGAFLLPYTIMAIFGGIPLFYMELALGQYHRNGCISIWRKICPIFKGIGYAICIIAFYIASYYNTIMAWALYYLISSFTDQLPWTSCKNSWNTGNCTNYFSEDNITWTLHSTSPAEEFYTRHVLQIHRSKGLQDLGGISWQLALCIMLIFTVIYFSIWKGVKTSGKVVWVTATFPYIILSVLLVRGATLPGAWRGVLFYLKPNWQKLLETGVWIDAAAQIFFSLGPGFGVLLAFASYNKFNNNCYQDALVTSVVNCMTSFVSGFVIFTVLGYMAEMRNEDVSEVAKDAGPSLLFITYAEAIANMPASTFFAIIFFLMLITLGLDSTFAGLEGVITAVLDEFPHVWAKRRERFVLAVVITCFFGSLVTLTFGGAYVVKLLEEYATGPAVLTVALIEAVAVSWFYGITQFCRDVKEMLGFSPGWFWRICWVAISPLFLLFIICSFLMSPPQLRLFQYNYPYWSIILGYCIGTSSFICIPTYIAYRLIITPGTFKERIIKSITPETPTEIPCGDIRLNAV
Sequence of Sodium-dependent noradrenaline transporter (P23975 whole entry): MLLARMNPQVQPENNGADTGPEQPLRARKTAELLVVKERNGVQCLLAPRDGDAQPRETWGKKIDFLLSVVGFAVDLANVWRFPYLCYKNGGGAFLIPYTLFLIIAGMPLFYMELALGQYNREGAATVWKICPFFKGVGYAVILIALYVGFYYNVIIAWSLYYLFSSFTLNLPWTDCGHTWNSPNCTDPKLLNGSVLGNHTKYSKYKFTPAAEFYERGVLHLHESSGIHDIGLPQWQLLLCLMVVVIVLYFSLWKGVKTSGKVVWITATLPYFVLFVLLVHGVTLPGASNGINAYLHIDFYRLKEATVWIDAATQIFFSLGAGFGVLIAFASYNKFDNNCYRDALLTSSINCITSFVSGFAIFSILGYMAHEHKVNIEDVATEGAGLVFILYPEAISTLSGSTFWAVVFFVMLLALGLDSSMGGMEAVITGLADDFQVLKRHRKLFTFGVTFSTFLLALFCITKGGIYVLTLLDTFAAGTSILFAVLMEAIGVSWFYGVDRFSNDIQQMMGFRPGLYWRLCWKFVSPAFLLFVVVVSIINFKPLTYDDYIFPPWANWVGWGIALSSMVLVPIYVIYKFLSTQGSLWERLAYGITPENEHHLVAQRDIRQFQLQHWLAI

Consider `CCC(NC(C)(C)C)C(=O)c1ccc(Cl)c(Cl)c1` (stereo not given), for which the result in [1], in test [8], in test [10] and in test [11] was inactive. The AD50 entry in the test filed under Mus musculus [2], in the test listed under Mus musculus [4] and in the test filed under Mus musculus [9] was “inactive” each time. In addition, the half-maximal inhibitory concentration (IC50) in test [3] was 0.118 µM; in test [5] it was 0.389 µM; in [6], 1.09 µM. The AD50 in the test filed under Mus musculus [7] worked out at 0.05 mg/kg.
As for `CCCC(NC(C)(C)C)C(=O)c1ccc(Cl)c(Cl)c1` (stereo not given), the outcome in test [1], in test [8], in [10] and in test [11] was inactive. Besides, the AD50 is 15 mg/kg in the test filed under Mus musculus [2], 0.13 mg/kg in the test filed under Mus musculus [7] and 17.5 mg/kg in the test listed under Mus musculus [9]. In addition, the IC50 in [3] stood at 0.031 µM; in [6], 2.3 µM. In addition, in the test filed under Mus musculus [4], the AD50 entry was “inactive”.
For `COc1cccc(C(=O)C(C)NC2CCCC2)c1` (stereo not given), the result in test [1], in test [8], in test [10] and in test [11] was inactive. Besides, the AD50 entry in the test listed under Mus musculus [2], in the test filed under Mus musculus [4], in the test filed under Mus musculus [7] and in the test listed under Mus musculus [9] was “inactive” throughout. The IC50 in test [3] was determined as 2.27 µM; in test [5], 8.2 µM; in test [6], 6.9 µM.
In the case of `CC(NC(C)(C)C)C(=O)c1ccc(Cl)cc1` (stereo not given), the result in test [1], in test [8], in [10] and in test [11] was inactive. Besides, the AD50 result in the test listed under Mus musculus [2] is “inactive”. Also, the IC50 in test [3] amounted to 1.09 µM; in test [5] it was 2.07 µM; in [6], 9.8 µM. Moreover, the AD50 in the test listed under Mus musculus [4] came out at 31 mg/kg; in the test listed under Mus musculus [7] it was 0.43 mg/kg; in the test listed under Mus musculus [9], 32 mg/kg.
Regarding `CC(C(=O)c1cccc(Cl)c1)N(C)C(C)(C)C` (stereo not given), the result in test [1], in [8], in [10] and in test [11] was inactive. Moreover, the AD50 in the test filed under Mus musculus [2] was 8.7 mg/kg; in the test listed under Mus musculus [7] it was 0.46 mg/kg. Besides, the IC50 is 6 µM in test [3] and 1.57 µM in [5]. For the same molecule, the AD50 entry in the test filed under Mus musculus [4] and in the test listed under Mus musculus [9] was “inactive” each time.
On to `CC(C(=O)c1cccc(Cl)c1)N1CCCCC1` (stereo not given), for which the result in test [1], in test [8], in test [10] and in [11] was inactive. For the same molecule, the AD50 entry in the test listed under Mus musculus [2], in the test filed under Mus musculus [4] and in the test listed under Mus musculus [9] was “inactive” throughout. Further, the IC50 in test [3] was 0.852 µM; in test [5], 2.52 µM. Besides, the AD50 in the test filed under Mus musculus [7] was 0.05 mg/kg.
As for `CCCC(NC(C)(C)C)C(=O)c1cccc(Cl)c1` (stereo not given), the outcome in test [1], in [8], in [10] and in test [11] was inactive. The AD50 entry in the test filed under Mus musculus [2], in the test filed under Mus musculus [4] and in the test filed under Mus musculus [9] was “inactive” throughout. Further, the half-maximal inhibitory concentration (IC50) stood at 0.056 µM in [3] and 0.37 µM in test [5]. Further, the AD50 in the test filed under Mus musculus [7] worked out at 10 mg/kg.
In the case of `CC(NC(C)(C)C)C(=O)c1ccc(Cl)c(Cl)c1` (stereo not given), the outcome in [1], in test [8], in [10] and in [11] was inactive. Also, the AD50 result in the test listed under Mus musculus [2], in the test filed under Mus musculus [4] and in the test filed under Mus musculus [9] was “inactive” throughout. Moreover, the half-inhibitory concentration (IC50) in test [3] was found to be 0.463 µM; in [5] it was 1.67 µM; in [6], 8.8 µM. Also, the AD50 in the test listed under Mus musculus [7] was found to be 0.28 mg/kg.
`CC(NC(C)(C)C)C(=O)c1ccc(Br)cc1` (stereo not given): the result in [1], in test [8], in test [10] and in [11] was inactive. In addition, the values for the AD50 in the test listed under Mus musculus [2], in the test filed under Mus musculus [7] and in the test listed under Mus musculus [9] were 23.5 mg/kg, 0.15 mg/kg and 29 mg/kg, respectively. In addition, the concentration for half-maximal inhibition (IC50) in [3] was 0.689 µM; in test [5] it was 2.54 µM; in [6], 4.51 µM. Moreover, the AD50 result in the test listed under Mus musculus [4] was “inactive”.
`Cc1cccc(C(=O)C(C)NC2CCCC2)c1` (stereo not given): the outcome in test [1], in test [8], in [10] and in test [11] was inactive. Besides, the AD50 entry in the test listed under Mus musculus [2], in the test listed under Mus musculus [4], in the test listed under Mus musculus [7] and in the test filed under Mus musculus [9] was “inactive” each time. Further, the 50% inhibitory concentration (IC50) in test [3] was found to be 0.842 µM; in test [5], 8.7 µM.
